In one assay the target is T1, neuraminidase (NA), from Sigma-Aldrich.
T1 construct: gene nanH
The assay is classed as biochemical. Particulars: read-out: HPLC-FLD.
In the case of `COC(=O)C1=CO[C@@H](O[C@@H]2O[C@H](CO)[C@@H](O)[C@H](O)[C@H]2O)[C@@H]2C(CO)=CC[C@H]12` [compound 1, Geniposide], the IC50 worked out at 970 ± 90 µM. Regarding `O=C(/C=C/c1ccc(O)c(O)c1)O[C@@H]1C[C@](O)(C(=O)O)C[C@@H](O)[C@H]1O` [compound 3, Chlorogenic acid], the IC50 was 2560 ± 60 µM. On the same count and under the same terms, as for `O=C(/C=C/c1ccc(O)c(O)c1)O[C@H]1[C@H](O)C[C@](O)(C(=O)O)C[C@H]1O` [compound 4, Cryptochlorogenin acid], the figure is 2200 ± 10 µM; as for `O=C(/C=C/c1ccc(O)c(O)c1)O[C@@H]1[C@H](O)C[C@@](O)(C(=O)O)C[C@H]1OC(=O)/C=C/c1ccc(O)c(O)c1` [compound 6, Isochlorogenic acid C], 1170 ± 50 µM. The same measure, in the same setting: in the case of `O=C(O)[C@H]1O[C@@H](Oc2cc3oc(-c4ccccc4)cc(=O)c3c(O)c2O)[C@H](O)[C@@H](O)[C@@H]1O` [compound 7, Baicalin] it was 500 ± 40 µM; in that of `O=c1cc(-c2ccccc2)oc2cc(O)c(O)c(O)c12` [compound 8, Baicalein], 110 ± 10 µM; in that of `CC(C)=CCOc1c2ccoc2cc2oc(=O)ccc12` [compound 9, Isoimpemtorin], 660 ± 160 µM. On the same count and under the same terms, in the case of `O=c1ccc2cc3ccoc3cc2o1` [compound 10, Psoralen] it was 1000 ± 630 µM.

On to `O=c1ccc2cc3ccoc3c(O)c2o1` [compound 12, Xanthotol], for which the IC50 was 1050 ± 70 µM. On the same count and under the same terms, as for `COc1c2ccoc2cc2oc(=O)ccc12` [compound 13, Bergapten], the figure is 2800 ± 160 µM; as for `COc1ccc2ccc(=O)oc2c1CC=C(C)C` [compound 14, Osthole], 2140 ± 150 µM.

The assay is the same for the next values; noted with them: read-out: NA enzyme-based inhibitory assays.
Regarding `COC(=O)C1=CO[C@@H](O[C@@H]2O[C@H](CO)[C@@H](O)[C@H](O)[C@H]2O)[C@H]2[C@@H]1[C@H](O)C[C@]2(C)O` [compound 2, Shanzhiside methyl ester], the IC50 turned out to be 10 µM.

For another assay the target is unchanged. The assay is classed as biochemical. Particulars: read-out: HPLC-FLD. This is another data set of the same source.
In the case of `O=c1ccc2ccc3occc3c2o1` [compound 11, Angelicin], the IC50 was 2550 ± 380 µM.

(Values after article PMC8410435, “Evaluation of Neuraminidase Inhibitory Activity of Compounds and Extracts from Traditional Medicines by HPLC-FLD” (International Journal of Analytical Chemistry, 2021).)
